“Also recorded” adds a separate entry of the source.
Legend:
E. coli sepsis in dogs [1] = test: Late Treatment Study: TAC given after 3.5 h of sepsis, hemodynamics; format: in vivo, dog; details: for Arterial pH / HR / Hct / Lactate / Pwp / SVR: mean±SE, n=5
Protocol: (§1) In all of the studies outlined, the animals were randomized into treatment and nontreatment placebo groups (see below). The E. coli model used in these studies was identical to that previously described (6). Sepsis was induced by the intravenous infusion of 10^10 colony forming units of live E. coli (designation 011:B4). The bacteria were suspended in normal saline solution and were given over 0.5 hour. A constant infusion of approximately 5×10^9 colony forming units/hour of E. coli was then maintained for the remainder of the experiment.
(§2) The animals (16-24 kg) were initially anesthetized with thiopental sodium (20 mg/kg, intravenously) and constantly infused with sufentanil citrate (1 ug/min) and midazolam (5 ug/kg/min) (33). Drug rates were adjusted as required to abolish the palpebral reflex. The animals were placed in the supine position; the trachea was intubated with an endotracheal tube; and the lungs were mechanically ventilated at a tidal volume of 20 ml/kg. The ventilator rate was initially set to maintain blood pH at approximately 7.35 and was increased as necessary to reverse the metabolic acidosis that developed over the course of the study. Approximately 100% oxygen was inspired, so that hypoxemia would not affect the results of the study.
(§3) Under sterile conditions, the right jugular vein was percutaneously cannulated with an introducer (Arrow International, Reading, Pa.). A thermister tipped catheter was advanced from the jugular vein into the pulmonary artery to measure mean pulmonary arterial pressure (Ppa), mean pulmonary capillary wedge pressure (Pwp), mean right atrial pressure (Pra), thermodilution cardiac output (CO, Columbus Instruments, OH), and to obtain mixed venous oxygen blood samples. Another introducer was placed into the left jugular vein for administration of intravenous saline solution and the treatment or placebo drug (see below). A polyethylene catheter was also percutaneously placed into the femoral artery to measure mean blood pressure (MAP), and to obtain samples of blood for blood gas analysis, blood hematocrit (Hct), lactate concentrations, and blood cultures in some cases. Lactate was measured by an automated lactate dehydrogenase based assay (34) and was performed only in ETS and LTS because of equipment difficulties in the Pretreatment Study.
(§4) All catheters were connected to transducers (Cobe Laboratories), were referenced relative to the left atrium and were connected to a chart recorder (Astro-Med, W Warwick, R.I.). Heart rate (HR) was measured from the recorder tracing. Stroke-volume (SV) was calculated as CO/HR. Systemic vascular resistance (SVR) was calculated from [(MAP-Pra)/CO]×80. At each measurement interval (see below), a full set of measurements included MAP, CO, Ppa, Pra, Pwp, Hct, HR, SV, and arterial and mixed venous blood samples.
(§5) In the analysis, stroke work (SW) was the primary index of cardiac performance and the primary hemodynamic endpoint chosen in the in vivo studies (35,18) (see Discussion). At constant preload, SW reflects both the decreases in afterload and the changes in contractile function that accompany sepsis. SW was determined at approximately the same Pwp at each measurement interval. The baseline Pwp usually averaged ≈8-10 mmHg, and normal saline solution was given as necessary to maintain Pwp constant over the experimental period. SW was calculated from SV (MAP-Pwp).
Late Treatment Study. In LTS, the objective was to see if TAC would reverse myocardial depression once it had already been produced. TAC was administered after 3.5 hours after the initiation of bacteria and was given over a 0.5 hour in 200 ml D5W. Because it was also noted in the in vitro trabecular preparation that once lysozyme was already placed into the bath, a higher concentration of TAC was required to inhibit the effect of lysozyme, the initial dose was increased to 250 mg in LTC. […]

E. coli sepsis in dogs [2] = test: Early Treatment Study: TAC given 1.5 h after sepsis induced, hemodynamics; format: in vivo, dog; details: for Arterial pH / HR / Hct / Lactate / Pwp / SVR: mean±SE, n=5
Protocol: as §1, §2, §3, §4, §5
Early Treatment Study. The purpose of this study was to assess the effect of TAC when treatment was administered during sepsis, but before myocardial depression developed. Treatment was administered at 1.5 hours after bacteremia was begun (6). Based on the lack of response of some animals in the LTS, the initial dose of TAC was increased to 400 mg, and followed by 50 mg/h mixed in 50 cc D5W over the remainder of the study. The placebo group received an identical amount of D5W over the course of the study.

[3] = test system: right ventricular trabecular preparation; test: Adrenergic response to field stimulation or isoproterenol in right ventricular trabecular preparation; format: cell-based, dog; details: TAC 10^−4M
Text: Since myocardial depression in sepsis may also be related to a diminished sympathetic response, the possible role of Lzm-S in contributing to this effect was additionally investigated in the right ventricular preparation as previously described (18). Neural adrenergic stimulation was produced in which the pulse width of the electrical stimulus-trains was increased from 2 ms to 20 ms, keeping other stimulus parameters unchanged. The increase in tension seen with sympathetic nerve stimulation was calculated as a percent increase from basal twitch amplitude. In the protocol used, the adrenergic response was measured before and after 10^−10M, 10^−9M, and 10^−8M Lzm-S were added to the organ bath. The results obtained with Lzm-S were compared with those obtained in time control experiments in which equal volumes of KH were added to the preparation at identical intervals. In a second set of experiments, it was observed whether TAC prevented the decrease in the adrenergic response produced by Lzm-S. Either TAC (10^−4M) or KH was added to an organ bath, and the results obtained with TAC treatment were compared with those obtained without the addition of the inhibitor. […]

[4] = Late Treatment Study, 2 h posttreatment (6 h post-sepsis)
[5] = Late Treatment Study, 3.5 h post sepsis, before TAC
[6] = Late Treatment Study, immediately after TAC infusion

CC(=O)N[C@H]1[C@H](O[C@H]2[C@H](O)[C@@H](NC(C)=O)C(O)O[C@@H]2CO)O[C@H](CO)[C@@H](O[C@@H]2O[C@H](CO)[C@@H](O)[C@H](O)[C@H]2NC(C)=O)[C@@H]1O (some centres unmarked) [TAC, N,N′,N″ triacetylglucosamine]
SW once myocardial depression was observed (E. coli sepsis in dogs [1]; Late Treatment Study): little effect of treatment on SW | Hemodynamics (E. coli sepsis in dogs [1]; Late Treatment Study (FIG. 11)): no effect | Arterial pH (E. coli sepsis in dogs [1]; [4]): 7.20 ± .04 | HR (E. coli sepsis in dogs [1]; [4]): 90 ± 9 beats/min | Hct (E. coli sepsis in dogs [1]; [4]): 29 ± 6% | Lactate (E. coli sepsis in dogs [1]; [4]): 1.3 ± .4 mM | Pwp (E. coli sepsis in dogs [1]; [4]): 10 ± 1.6 mmHg | SVR (E. coli sepsis in dogs [1]; [4]): 1280 ± 182 dynes s cm^−5 | Arterial pH (E. coli sepsis in dogs [1]; [5]): 7.24 ± .05 | HR (E. coli sepsis in dogs [1]; [5]): 113 ± 9 beats/min | Hct (E. coli sepsis in dogs [1]; [5]): 26 ± 5% | Pwp (E. coli sepsis in dogs [1]; [5]): 9.8 ± 1 mmHg | SVR (E. coli sepsis in dogs [1]; [5]): 1200 ± 262 dynes s cm^−5 | Arterial pH (E. coli sepsis in dogs [1]; Late Treatment Study, baseline): 7.34 ± .015 | HR (E. coli sepsis in dogs [1]; Late Treatment Study, baseline): 60 ± 4 beats/min | Hct (E. coli sepsis in dogs [1]; Late Treatment Study, baseline): 34 ± 2% | Lactate (E. coli sepsis in dogs [1]; Late Treatment Study, baseline): .9 ± .2 mM | Pwp (E. coli sepsis in dogs [1]; Late Treatment Study, baseline): 9.4 ± 1 mmHg | SVR (E. coli sepsis in dogs [1]; Late Treatment Study, baseline): 2437 ± 343 dynes s cm^−5 | Arterial pH (E. coli sepsis in dogs [1]; [6]): 7.20 ± .04 | HR (E. coli sepsis in dogs [1]; [6]): 96 ± 8 beats/min | Hct (E. coli sepsis in dogs [1]; [6]): 27 ± 5% | Lactate (E. coli sepsis in dogs [1]; [6]): 1.3 ± .2 mM | Pwp (E. coli sepsis in dogs [1]; [6]): 10.5 ± 1.4 mmHg | SVR (E. coli sepsis in dogs [1]; [6]): 1268 ± 196 dynes s cm^−5 | CO over the course of sepsis (E. coli sepsis in dogs [2]; 6 h): increased over the course of sepsis as compared with the nontreated group; also recorded: significant increases | SV over the course of sepsis (E. coli sepsis in dogs [2]; 6 h): showed a similar finding | Arterial pH (E. coli sepsis in dogs [2]; 6 h after sepsis initiated): 7.24 ± .03 | HR (E. coli sepsis in dogs [2]; 6 h after sepsis initiated): 94 ± 8 beats/min | Hct (E. coli sepsis in dogs [2]; 6 h after sepsis initiated): 30 ± 4% | Lactate (E. coli sepsis in dogs [2]; 6 h after sepsis initiated): 1 ± .1 mM | Pwp (E. coli sepsis in dogs [2]; 6 h after sepsis initiated): 10.9 ± 1 mmHg | SVR (E. coli sepsis in dogs [2]; 6 h after sepsis initiated): 1792 ± 233 dynes s cm^−5 | Arterial pH (E. coli sepsis in dogs [2]; baseline): 7.23 ± .03 | HR (E. coli sepsis in dogs [2]; baseline): 68 ± 9 beats/min | Hct (E. coli sepsis in dogs [2]; baseline): 31 ± 2% | Lactate (E. coli sepsis in dogs [2]; baseline): 1 ± .1 mM | Pwp (E. coli sepsis in dogs [2]; baseline): 10 ± .5 mmHg | SVR (E. coli sepsis in dogs [2]; baseline): 2160 ± 581 dynes s cm^−5 | MAP over the 6 hrs of sepsis (E. coli sepsis in dogs [2]; treatment group): increased in 4 of the 5 dogs | Effect of pretreatment on the reduction in adrenergic response caused by Lzm-S [3]: prevented the reduction in adrenergic response

From US7402575B2, “Methods of treating inflammation” (priority 2003, dated 2008)
